ChEMBL document CHEMBL1201862, “PubChem BioAssay data set” (2004)
The source made the active and inactive calls.

Legend:
[1] = cells; type: functional, cell-based
[2] = system: BJ; experiment: BJ-TERT fibroblast viability loss – cell-based, RAS-independent, luminescence, dose response (AID 1933); type: functional; conditions: Homo sapiens
[3] = system: BJ; experiment: BJ-TERT-LT-ST fibroblast viability loss – cell-based, RAS-independent, luminescence, dose response (AID 1935); type: functional; conditions: Homo sapiens;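 further: BJ fibroblasts immortalized with TERT plus LT and ST oncogenes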
[4] = toxicity toward HEK293 cells – cell-based, dry powder samples, cytotoxicity control, dose response (AID 720567); type: functional
[5] = system: BJ; experiment: cells; type: functional, cell-based; conditions: Homo sapiens
[6] = luciferase reporter signal reduction – luminescence, H4-C neuroglioblastoma cells, dose response (AID 2458); type: functional, cell-based;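 further: H4 neuroglioblastoma cells stably carrying a luciferase reporter gene fusion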
[7] = DRD fibroblast viability loss – cell-based, non-viral oncogenic, luminescence, dose response (AID 1934); type: functional; conditions: Homo sapiens
[8] = alpha-synuclein stem-loop luciferase translation blockers – H4 neuroglioma cells, luminescence, confirmation (AID 1988); type: functional, cell-based
[9] = Luminescence Cell-Based Dose Response HTS to Identify Inhibitors of 5'UTR Stem-Loop Driven Prion Protein mRNA Translation in H4 Neuroglioblastoma Cells. [Related pubchem assays: 1827 (Project Summary), 1813 (Primary HTS)]; type: functional
[10] = luciferase reporter signal suppression in cells – H4 neuroglioma cells, luminescence, dose response (AID 1990); type: functional, cell-based
[11] = alpha-synuclein stem-loop translation blockers – luminescence, H4 neuroglioblastoma cells, dose confirmation, confirmation (AID 2454); type: functional, cell-based;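 further: H4 neuroglioblastoma cells carrying an alpha-synuclein 5'UTR luciferase reporter; potency for inhibition of the luciferase signal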
[12] = target: T1, Alkaline phosphatase, tissue-nonspecific isozyme (Homo sapiens, UniProt P05186)
T1 sequence (P05186 whole entry): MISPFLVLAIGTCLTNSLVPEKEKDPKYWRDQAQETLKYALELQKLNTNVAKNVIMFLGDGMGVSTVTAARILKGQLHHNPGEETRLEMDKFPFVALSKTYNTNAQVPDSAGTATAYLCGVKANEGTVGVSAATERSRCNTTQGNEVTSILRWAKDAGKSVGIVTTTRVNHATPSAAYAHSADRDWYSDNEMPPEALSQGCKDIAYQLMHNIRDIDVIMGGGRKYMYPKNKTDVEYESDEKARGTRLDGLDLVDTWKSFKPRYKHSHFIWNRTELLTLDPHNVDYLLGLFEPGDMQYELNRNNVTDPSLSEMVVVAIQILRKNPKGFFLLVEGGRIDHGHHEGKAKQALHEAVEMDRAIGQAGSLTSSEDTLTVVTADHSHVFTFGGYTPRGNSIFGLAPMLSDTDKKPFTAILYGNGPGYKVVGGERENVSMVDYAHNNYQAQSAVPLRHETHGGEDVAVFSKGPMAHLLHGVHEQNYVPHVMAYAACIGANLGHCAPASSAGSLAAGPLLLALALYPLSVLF

[13] = target: Bcl-2-like protein 10 (Homo sapiens, UniProt Q9HD36); experiment: Concentration-response of Bcl-B inhibitors by biochemical FP with TR3 (AID 1243); type: functional
[14] = target: T2, Dual specificity protein phosphatase 6 (Rattus norvegicus, UniProt Q64346)
T2 sequence (Q64346 whole entry): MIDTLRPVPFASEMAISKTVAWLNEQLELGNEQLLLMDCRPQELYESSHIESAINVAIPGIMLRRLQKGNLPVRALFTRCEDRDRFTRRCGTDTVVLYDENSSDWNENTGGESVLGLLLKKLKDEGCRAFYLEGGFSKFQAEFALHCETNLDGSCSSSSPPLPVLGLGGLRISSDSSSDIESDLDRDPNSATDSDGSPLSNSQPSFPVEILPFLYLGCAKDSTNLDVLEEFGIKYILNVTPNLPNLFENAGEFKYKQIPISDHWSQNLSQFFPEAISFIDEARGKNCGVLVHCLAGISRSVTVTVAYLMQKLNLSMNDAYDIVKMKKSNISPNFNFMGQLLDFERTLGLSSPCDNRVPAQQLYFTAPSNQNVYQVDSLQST

[15] = target: Glyceraldehyde-3-phosphate dehydrogenase (Homo sapiens, UniProt P04406)
Sequence of Glyceraldehyde-3-phosphate dehydrogenase (P04406 whole entry): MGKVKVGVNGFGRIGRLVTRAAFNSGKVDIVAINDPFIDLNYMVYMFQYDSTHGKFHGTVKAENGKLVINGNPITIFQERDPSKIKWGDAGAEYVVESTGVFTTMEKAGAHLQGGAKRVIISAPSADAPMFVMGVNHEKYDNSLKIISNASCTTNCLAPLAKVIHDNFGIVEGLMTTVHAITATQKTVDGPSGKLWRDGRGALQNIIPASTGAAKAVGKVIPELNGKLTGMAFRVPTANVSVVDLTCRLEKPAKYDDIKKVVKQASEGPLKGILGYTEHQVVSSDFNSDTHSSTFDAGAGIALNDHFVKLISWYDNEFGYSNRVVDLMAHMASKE

[16] = target: T3, Tyrosine-protein phosphatase non-receptor type 7 (Homo sapiens, UniProt P35236); type: functional
T3 sequence (P35236 whole entry): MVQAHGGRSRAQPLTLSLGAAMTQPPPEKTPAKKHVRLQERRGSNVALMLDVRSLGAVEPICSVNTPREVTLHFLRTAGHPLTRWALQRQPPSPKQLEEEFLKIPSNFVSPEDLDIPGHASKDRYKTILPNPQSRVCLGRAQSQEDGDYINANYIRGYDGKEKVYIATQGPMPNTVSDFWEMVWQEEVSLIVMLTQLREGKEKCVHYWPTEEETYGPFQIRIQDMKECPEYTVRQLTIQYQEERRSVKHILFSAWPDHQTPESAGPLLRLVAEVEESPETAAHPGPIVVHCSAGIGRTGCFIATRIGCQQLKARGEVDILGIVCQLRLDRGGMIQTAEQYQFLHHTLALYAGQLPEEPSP

[17] = target: Heat shock cognate 71 kDa protein (Homo sapiens, UniProt P11142); experiment: In Vitro Hsc70 Dose Response Fluorescence Polarization Assay. [Related pubchem assays: 1072 ]
Sequence of Heat shock cognate 71 kDa protein (P11142 whole entry): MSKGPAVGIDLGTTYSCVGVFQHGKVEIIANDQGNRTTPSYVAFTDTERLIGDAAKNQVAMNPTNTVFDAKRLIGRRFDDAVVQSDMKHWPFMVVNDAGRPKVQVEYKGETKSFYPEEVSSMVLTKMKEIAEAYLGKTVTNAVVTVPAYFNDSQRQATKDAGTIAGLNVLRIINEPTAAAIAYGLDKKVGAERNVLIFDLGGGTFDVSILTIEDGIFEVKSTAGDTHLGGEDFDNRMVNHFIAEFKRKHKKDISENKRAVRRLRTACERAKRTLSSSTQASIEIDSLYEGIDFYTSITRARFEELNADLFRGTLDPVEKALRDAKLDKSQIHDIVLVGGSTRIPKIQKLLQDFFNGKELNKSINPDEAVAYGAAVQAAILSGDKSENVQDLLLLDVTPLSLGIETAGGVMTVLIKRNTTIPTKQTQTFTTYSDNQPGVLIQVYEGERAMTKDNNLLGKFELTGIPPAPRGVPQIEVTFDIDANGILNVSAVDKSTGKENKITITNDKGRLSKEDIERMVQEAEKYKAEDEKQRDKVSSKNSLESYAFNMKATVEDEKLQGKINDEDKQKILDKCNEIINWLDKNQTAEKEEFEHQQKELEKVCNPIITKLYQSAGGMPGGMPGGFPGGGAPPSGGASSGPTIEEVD

[18] = target: T2, Dual specificity protein phosphatase 6; type: functional
[19] = target: Heat shock 70 kDa protein 1A (Homo sapiens, UniProt P0DMV8); experiment: inhibition of Hsp70 binding activity – biochemical, fluorescence polarization, SAR follow-up (AID 1072)
Sequence of Heat shock 70 kDa protein 1A (P0DMV8 whole entry): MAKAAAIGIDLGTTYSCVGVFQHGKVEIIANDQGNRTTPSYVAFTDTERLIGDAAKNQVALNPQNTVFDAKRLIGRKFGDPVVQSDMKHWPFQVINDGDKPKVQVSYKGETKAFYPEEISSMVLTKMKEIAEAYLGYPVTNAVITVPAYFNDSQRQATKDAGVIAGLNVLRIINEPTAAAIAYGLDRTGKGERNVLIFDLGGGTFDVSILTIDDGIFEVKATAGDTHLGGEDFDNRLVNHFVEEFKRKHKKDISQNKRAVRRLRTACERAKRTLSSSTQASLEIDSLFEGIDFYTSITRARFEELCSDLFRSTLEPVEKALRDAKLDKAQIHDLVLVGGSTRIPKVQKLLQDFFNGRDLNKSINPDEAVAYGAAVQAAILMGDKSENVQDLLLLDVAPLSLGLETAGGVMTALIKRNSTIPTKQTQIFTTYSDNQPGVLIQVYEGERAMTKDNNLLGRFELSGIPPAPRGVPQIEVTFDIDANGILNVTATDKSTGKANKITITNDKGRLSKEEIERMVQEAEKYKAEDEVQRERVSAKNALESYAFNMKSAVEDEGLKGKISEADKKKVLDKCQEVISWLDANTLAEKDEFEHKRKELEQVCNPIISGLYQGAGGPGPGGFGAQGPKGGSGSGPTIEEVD

[20] = system: Staphylococcus aureus; experiment: Inhibitors of Bacterial Quorum Sensing Structure Activity Relationship (SAR) Analysis: Dose Response Assay. [Related pubchem assays: 700, 527 ]; type: functional, organism-based
[21] = target: Cytochrome P450 3A4 (Homo sapiens, UniProt P08684);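 further: CYP3A4 tested as one member of a cytochrome P450 panel screen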
[22] = target: Lysosomal acid glucosylceramidase (Homo sapiens, UniProt P04062); experiment: Dose response cell-based high throughput screening assay to identify enhancers of beta-glucosidase activity. [Related pubchem assays: 784 ]; type: functional
Sequence of Lysosomal acid glucosylceramidase (P04062 whole entry): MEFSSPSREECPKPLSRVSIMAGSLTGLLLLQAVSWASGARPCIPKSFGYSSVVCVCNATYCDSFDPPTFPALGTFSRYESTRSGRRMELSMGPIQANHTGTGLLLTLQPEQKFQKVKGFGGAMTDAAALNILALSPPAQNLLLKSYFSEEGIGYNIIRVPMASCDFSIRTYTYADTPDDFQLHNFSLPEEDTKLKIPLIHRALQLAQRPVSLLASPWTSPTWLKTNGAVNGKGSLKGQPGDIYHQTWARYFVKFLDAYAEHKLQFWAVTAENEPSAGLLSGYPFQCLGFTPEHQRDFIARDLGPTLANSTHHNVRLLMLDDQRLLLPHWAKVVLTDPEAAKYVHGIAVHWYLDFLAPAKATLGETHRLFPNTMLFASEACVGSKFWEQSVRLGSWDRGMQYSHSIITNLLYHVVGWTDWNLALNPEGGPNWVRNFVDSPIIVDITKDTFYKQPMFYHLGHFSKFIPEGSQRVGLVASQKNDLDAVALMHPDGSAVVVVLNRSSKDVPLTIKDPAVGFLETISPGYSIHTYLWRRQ

[23] = target: T4, Rac GTPase-activating protein 1 (Homo sapiens, UniProt Q9H0H5); experiment: blockers of MgcRacGAP-driven Rac1 GTP hydrolysis – biochemical, ADP Hunter fluorescence, primary and confirmatory, confirmation (AID 624330); type: functional
T4 sequence (Q9H0H5 whole entry): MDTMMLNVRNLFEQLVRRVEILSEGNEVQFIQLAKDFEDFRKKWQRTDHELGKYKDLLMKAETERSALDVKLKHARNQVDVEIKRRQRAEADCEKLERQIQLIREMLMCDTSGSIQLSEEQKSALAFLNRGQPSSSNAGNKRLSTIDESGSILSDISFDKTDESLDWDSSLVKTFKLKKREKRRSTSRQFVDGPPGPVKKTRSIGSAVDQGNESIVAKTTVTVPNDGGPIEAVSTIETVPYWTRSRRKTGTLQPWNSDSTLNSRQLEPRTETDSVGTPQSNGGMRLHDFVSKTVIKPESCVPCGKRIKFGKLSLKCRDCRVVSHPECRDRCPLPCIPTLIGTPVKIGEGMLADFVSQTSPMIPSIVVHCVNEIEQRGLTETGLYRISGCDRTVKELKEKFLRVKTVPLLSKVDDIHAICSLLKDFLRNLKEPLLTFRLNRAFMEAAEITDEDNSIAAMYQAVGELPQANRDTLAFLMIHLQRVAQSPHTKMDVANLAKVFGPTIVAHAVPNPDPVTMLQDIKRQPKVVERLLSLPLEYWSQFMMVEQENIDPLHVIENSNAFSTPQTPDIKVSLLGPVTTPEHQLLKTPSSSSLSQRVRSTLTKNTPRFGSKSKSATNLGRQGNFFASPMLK

[24] = target: Melanin-concentrating hormone receptor 1 (Homo sapiens, UniProt Q99705); experiment: Fluorescence-based counterscreen for antagonists of the G-protein coupled receptor 7 (GPR7): cell-based high throughput dose response assay to identify antagonists of the melanin-concentrating hormone receptor 1 (MCHR1).; type: functional
Sequence of Melanin-concentrating hormone receptor 1 (Q99705 whole entry): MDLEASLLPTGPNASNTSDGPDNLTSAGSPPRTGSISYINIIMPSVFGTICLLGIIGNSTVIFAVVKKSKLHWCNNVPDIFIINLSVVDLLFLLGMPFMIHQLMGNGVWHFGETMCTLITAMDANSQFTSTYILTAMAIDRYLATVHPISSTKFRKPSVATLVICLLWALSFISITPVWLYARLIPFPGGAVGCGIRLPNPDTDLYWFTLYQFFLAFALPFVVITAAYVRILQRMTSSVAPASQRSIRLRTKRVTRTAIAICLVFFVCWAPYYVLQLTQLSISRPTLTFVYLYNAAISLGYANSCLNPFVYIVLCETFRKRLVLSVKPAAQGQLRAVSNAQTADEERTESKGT

[25] = target: T5, Neuropeptides B/W receptor type 1 (Homo sapiens, UniProt P48145); experiment: Fluorescence-based dose response cell-based high throughput screening assay to identify antagonists of the G-protein coupled receptor 7 (GPR7). [Related pubchem assays: 1952 (Screening assay (GPR7 antagonists).), 1880 (Summary AID.)]; type: functional
T5 sequence (P48145 whole entry): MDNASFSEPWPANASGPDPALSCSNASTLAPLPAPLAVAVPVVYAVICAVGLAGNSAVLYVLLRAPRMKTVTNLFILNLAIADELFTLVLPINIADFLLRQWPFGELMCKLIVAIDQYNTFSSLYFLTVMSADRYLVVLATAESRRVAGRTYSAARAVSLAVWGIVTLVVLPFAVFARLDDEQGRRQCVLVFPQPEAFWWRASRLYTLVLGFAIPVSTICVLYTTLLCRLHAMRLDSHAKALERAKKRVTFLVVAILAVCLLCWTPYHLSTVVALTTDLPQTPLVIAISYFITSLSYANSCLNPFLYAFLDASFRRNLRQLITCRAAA

[26] = A549 cell cytotoxicity, dose response, cytotoxicity control, plate reader, cherry-pick, antagonist series (AID 743412); type: functional, cell-based
[27] = toxicity toward HepG2 liver cells – cell-based, plate reader, cherry-pick, antagonist series, cytotoxicity control, dose response (AID 743416); type: functional
[28] = target: Neurotensin receptor type 1 (Homo sapiens, UniProt P30989); type: functional;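 further: Image-based confirmatory dose-response assay measuring agonist activity at NTR1; NTR1-expressing U2OS osteosarcoma cells imaged for beta-arrestin GFP spot formation; agonist potency where compounds increase beta-arrestin recruitment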
Sequence of Neurotensin receptor type 1 (P30989 whole entry): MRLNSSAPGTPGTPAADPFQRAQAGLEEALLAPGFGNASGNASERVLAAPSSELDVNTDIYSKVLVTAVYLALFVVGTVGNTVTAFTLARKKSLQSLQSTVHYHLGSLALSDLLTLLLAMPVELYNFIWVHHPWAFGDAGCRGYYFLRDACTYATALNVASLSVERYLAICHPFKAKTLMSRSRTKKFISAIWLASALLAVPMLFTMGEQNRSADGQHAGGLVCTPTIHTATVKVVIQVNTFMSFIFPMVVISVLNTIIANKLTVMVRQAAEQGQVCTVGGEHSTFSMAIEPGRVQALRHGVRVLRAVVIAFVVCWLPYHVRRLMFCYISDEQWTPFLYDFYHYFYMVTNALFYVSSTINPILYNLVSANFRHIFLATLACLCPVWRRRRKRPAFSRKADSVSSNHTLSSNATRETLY

[29] = viability loss in HEK293 cells – cell-based, plate reader, cherry-picked samples, cytotoxicity control, dose response (AID 743446); type: functional
[30] = blockade of melanocortin 4 receptor signaling – cell-based, plate reader, cherry pick, counter-screen for LGR2 antagonist project, dose response (AID 743444); type: functional;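 further: transfected HEK 293 cells stimulated with alpha-MSH peptide; potency of inhibitors of the alpha-MSH evoked signal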
[31] = blockers of bursicon-stimulated LGR2 cAMP reporter – cell-based, HEK293, CRE-luciferase reporter, cherry pick, set 2, dose response (AID 743343); type: functional;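 further: transfected cells were stimulated with diluted bursicon conditioned medium after compound addition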
[32] = target: Cytochrome P450 2C9 (Homo sapiens, UniProt P11712); conditions: Potency
Sequence of Cytochrome P450 2C9 (P11712 whole entry): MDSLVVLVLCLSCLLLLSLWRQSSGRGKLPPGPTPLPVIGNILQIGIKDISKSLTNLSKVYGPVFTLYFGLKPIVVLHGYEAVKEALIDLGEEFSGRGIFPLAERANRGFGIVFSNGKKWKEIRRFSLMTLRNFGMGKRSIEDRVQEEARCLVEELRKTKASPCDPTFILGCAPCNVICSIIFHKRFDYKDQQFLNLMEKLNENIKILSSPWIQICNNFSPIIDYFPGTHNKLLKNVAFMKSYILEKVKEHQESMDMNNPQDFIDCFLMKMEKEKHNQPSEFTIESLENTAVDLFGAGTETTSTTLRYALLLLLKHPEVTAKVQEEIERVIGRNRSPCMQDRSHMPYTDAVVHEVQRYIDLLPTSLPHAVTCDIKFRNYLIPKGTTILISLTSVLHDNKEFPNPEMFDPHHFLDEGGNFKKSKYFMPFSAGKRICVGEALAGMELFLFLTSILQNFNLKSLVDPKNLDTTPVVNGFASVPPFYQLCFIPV

[33] = Trypanosoma cruzi growth suppression in host cells – NIH3T3 host cells, beta-gal luminescence, confirmation (AID 2044); type: functional, cell-based;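 further: intracellular parasites grown in NIH/3T3 mouse fibroblasts as host cells; luminescent beta-galactosidase reporter signal from transgenic T. cruzi replicating inside host cells; inhibitors lower the luminescence signal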
[34] = Cytotoxicity screening for potential Inhibitors of Bacterial Capsule Biogenesis. [Related pubchem assays (depositor defined):AID488970]; type: functional
[35] = NIH3T3 cell viability loss – ATP luminescence, mouse fibroblasts, counter-screen, dose response (AID 2010); type: functional, cell-based;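 further: cells exposed to compound for about 90 hours before reading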
[36] = target: Wee1-like protein kinase (Homo sapiens, UniProt P30291); experiment: HeLa cell cycle G2/M accumulation – FACS, mechanism study for Wee1 degradation inhibitor project, late-stage follow-up, panel member Wee1 Degradation (AID 2088)
Sequence of Wee1-like protein kinase (P30291 whole entry): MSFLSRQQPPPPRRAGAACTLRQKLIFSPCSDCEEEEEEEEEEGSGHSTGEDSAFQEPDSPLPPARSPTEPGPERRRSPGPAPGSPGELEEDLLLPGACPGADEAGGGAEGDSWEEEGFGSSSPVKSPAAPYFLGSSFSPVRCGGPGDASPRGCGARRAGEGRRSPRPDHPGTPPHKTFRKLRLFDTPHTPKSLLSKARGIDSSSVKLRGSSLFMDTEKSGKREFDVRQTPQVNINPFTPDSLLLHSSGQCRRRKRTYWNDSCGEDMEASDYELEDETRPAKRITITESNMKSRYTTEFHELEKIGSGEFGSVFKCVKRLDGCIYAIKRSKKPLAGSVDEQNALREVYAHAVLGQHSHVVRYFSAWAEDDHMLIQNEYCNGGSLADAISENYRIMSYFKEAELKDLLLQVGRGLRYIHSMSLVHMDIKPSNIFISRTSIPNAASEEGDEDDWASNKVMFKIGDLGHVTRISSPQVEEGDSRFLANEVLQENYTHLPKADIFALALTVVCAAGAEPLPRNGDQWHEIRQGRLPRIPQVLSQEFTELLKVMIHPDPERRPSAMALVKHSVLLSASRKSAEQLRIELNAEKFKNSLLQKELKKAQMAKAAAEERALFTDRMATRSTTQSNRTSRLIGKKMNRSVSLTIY

[37] = target: G2/mitotic-specific cyclin-B1 (Homo sapiens, UniProt P14635); experiment: HeLa cell cycle G2/M accumulation – FACS, mechanism study for Wee1 degradation inhibitor project, late-stage follow-up, panel member Cyclin B Degradation (AID 2088)
[38] = target: Vasopressin V1a receptor (Homo sapiens, UniProt P37288); experiment: Counterscreen for Oxytocin Receptor (OXTR) agonists: Fluorescence-based cell-based high throughput dose response assay to identify agonists of the vasopressin 1 receptor (V1R). [Related pubchem assays: 2435 (Primary screen (OXTR agonists in singlicate)), 434991 (Counterscreen (V1R agonists in triplicate)), 2482 (Summary (OXTR agonists)) …; type: functional
Sequence of Vasopressin V1a receptor (P37288 whole entry): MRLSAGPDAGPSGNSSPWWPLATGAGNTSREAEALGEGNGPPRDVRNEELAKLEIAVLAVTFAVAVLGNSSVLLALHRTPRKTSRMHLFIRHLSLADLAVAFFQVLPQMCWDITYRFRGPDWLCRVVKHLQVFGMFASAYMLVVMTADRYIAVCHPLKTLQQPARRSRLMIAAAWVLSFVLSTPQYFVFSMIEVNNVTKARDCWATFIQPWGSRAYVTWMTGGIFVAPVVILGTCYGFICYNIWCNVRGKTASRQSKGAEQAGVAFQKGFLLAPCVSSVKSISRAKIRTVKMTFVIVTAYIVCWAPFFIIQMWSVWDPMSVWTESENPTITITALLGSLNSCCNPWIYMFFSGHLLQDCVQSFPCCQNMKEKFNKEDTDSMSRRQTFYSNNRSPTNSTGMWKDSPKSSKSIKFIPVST

[39] = target: Beta-2 adrenergic receptor (Homo sapiens, UniProt P07550); experiment: ADRB2 activation measured by internalization – cell-based, FAP fluorogen, flow cytometry, cherry pick 1, dose response (AID 588763); type: functional
Sequence of Beta-2 adrenergic receptor (P07550 whole entry): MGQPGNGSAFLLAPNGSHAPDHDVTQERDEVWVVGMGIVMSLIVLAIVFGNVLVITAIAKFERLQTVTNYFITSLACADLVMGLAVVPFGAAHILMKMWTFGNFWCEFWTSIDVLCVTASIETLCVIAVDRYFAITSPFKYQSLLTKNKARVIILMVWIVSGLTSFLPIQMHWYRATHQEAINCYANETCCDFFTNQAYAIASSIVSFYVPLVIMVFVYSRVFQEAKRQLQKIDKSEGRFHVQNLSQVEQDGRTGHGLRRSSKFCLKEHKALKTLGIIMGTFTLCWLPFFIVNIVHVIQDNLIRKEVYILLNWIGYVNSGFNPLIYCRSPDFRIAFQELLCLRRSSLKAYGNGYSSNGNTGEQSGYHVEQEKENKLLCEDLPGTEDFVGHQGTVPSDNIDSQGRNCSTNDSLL

[40] = viability of uninfected HEp-2 cells – cell-based, HTS, cytotoxicity control for RSV inhibitor project, dose response (AID 2410); type: functional; conditions: human respiratory syncytial virus
[41] = target: Oxytocin receptor (Homo sapiens, UniProt P30559); experiment: Fluorescence-based cell-based high throughput dose response assay for agonists of the Oxytocin Receptor (OXTR). [Related pubchem assays: 2435 (Primary screen (OXTR agonists in singlicate)), 434991 (Counterscreen (V1R agonists in triplicate)), 2482 (Summary (OXTR agonists)), 434963 (Confirmation screen (OXTR agonists in triplicate))]; type: functional

SMILES: CCOc1ccc(NC(=O)c2cc(OC)nc3ccccc23)cc1
- EC50 [1]: 1.96 µM (active)
- EC50 [2]: 1.11 µM (active)
- EC50 [3]: 1.38 µM (inconclusive)
- AC50 [4]: > 30 µM (inactive)
- EC50 [5]: 69.8 µM (inconclusive)
- EC50 [6]: 0.965 µM (active)
- EC50 [7]: 0.894 µM (active)
- EC50 [8]: < 0.1 µM (active)
- EC50 [9]: 0.303 µM (active)
- EC50 [10]: 4.73 µM (active)
- EC50 [11]: 1.16 µM (active)

SMILES: C=CCNC(=S)NNC(=O)C(CCC(C)C)CC(C)O (centres undefined)
- EC50 [12]: 43.5 µM (active)

SMILES: CC(=O)Nc1ccc2c(c1)C1C=CCC1C(C(=O)O)N2 (centres undefined)
- EC50 [13]: 4.44 µM (active)
- IC50 [14]: > 100 µM (inactive)
- IC50 [15]: > 100 µM (not active)
- IC50 [16]: 21 µM (active)
- IC50 [17]: > 100 µM (not active)
- IC50 [18]: > 100 µM (inactive)
- IC50 [19]: 35.2 µM (active)

SMILES: Cc1cccc(Nc2ccccc2C(=O)O)c1C [MEFENAMIC ACID]
- IC50 [20]: 1.34 µM (active)
- AC50 [21]: inconclusive

SMILES: CC(C)(C)NC(=O)CSc1nncn1NCc1ccccc1
- EC50 [22]: > 50 µM (not active)

SMILES: CN(C)c1ccc(Nc2ccc([N+](=O)[O-])cn2)cc1
- IC50 [23]: 36.4 µM (active)
- IC50 [24]: > 43.8 µM (not active)
- IC50 [25]: > 43.8 µM (not active)

SMILES: COc1ccc2sc(-c3ccc(S(C)(=O)=O)cc3)c(C#CCO)c2c1
- AC50 [26]: 10.6 µM (active)
- AC50 [27]: 24.4 µM (active)
- EC50 [28]: 26.6 µM (inactive)
- AC50 [29]: 16.8 µM (active)
- AC50 [30]: 30.1 µM (active)
- AC50 [31]: 25 µM (active)

SMILES: C/C=C/OC(=O)NC(c1ccccc1)[C@]1(C(C)=O)CCOC1=O (some centres undefined)
- AC50 [32]: 0.794 µM (inconclusive)

SMILES: COc1cc(/C=N/N=C(N)N)ccc1OCc1ccccc1Cl
- EC50 [33]: 0.447 µM (active)
- CC50 [34]: 6.19 µM (active)
- EC50 [35]: > 60 µM (not active)

SMILES: Cc1cc(O)nc(-n2nc(C)cc2NC(=O)c2ccc(F)cc2)n1
- EC50 [36]: > 16.6 µM (active)
- EC50 [37]: > 49.7 µM (inactive)

SMILES: COc1ccc(CCNCC(O)Cn2c3ccccc3c3ccccc32)cc1OC (centres undefined)
- EC50 [38]: 12.7 µM (not active)
- EC50 [8]: > 120 µM (not active)
- EC50 [9]: > 120 µM (not active)
- EC50 [39]: 12.5 µM (inactive)
- EC50 [10]: 8.76 µM (active)
- CC50 [40]: 13.7 µM (active)
- EC50 [41]: 18.8 µM (not active)
